20 compounds from patent EP1806348A2, “Pyrido (2,3-D)Pyrimidines as inhibitors of cellular proliferation” (Warner-Lambert Company LLC, priority 1997, dated 1998) can be followed below.

What all share (format): biochemical
The target of one assay is cdk4/D (Homo sapiens, UniProt P11802). Briefly: Cyclin-dependent kinase 4 (cdk4) enzyme assay, 32P incorporation into retinoblastoma. Conditions: Table 1; 25 µM ATP, retinoblastoma substrate. The protocol: A typical assay, for instance, measures inhibitory activity against the cyclin D dependent kinase 4 enzyme (cdk4/D). […] The cdk 4 assay was carried out as follows.
All components except the ATP were added to the wells, and the plate was placed on a plate mixer for 2 minutes. […] The reaction was terminated by addition of 0.1 mL of 20% trichloroacetic acid (TCA). The plate was kept at 4°C for at least 1 hour to allow the substrate to precipitate. The wells were then washed five times with 0.2 mL of 10% TCA and ^32P incorporation was determined with a beta plate counter (Wallac Inc., Gaithersburg, MD).

A further assay deals with cdk2/cyclinE (Homo sapiens, UniProt P24941). The assay is described as follows: Cyclin-dependent kinase assay (cdk2/cyclinE). As to conditions: Table 1; read-out: cdk2/E IC50. The protocol:
(§1) All components except the ATP were added to the wells, and the plate was placed on a plate mixer for 2 minutes. […] The reaction was terminated by addition of 0.1 mL of 20% TCA. The plate was kept at 4°C for at least 1 hour to allow the substrate to precipitate. The wells were then washed five times with 0.2 mL of 10% TCA and ^32P incorporation determined with a beta plate counter (Wallac Inc., Gaithersburg, MD).

The next assay has as its target cdk2/cyclinA (Homo sapiens, UniProt P24941). The assay is described as follows: Cyclin-dependent kinase assay (cdk2/cyclinA). Conditions: Table 1. The protocol:
as §1

In another assay the target is cdc2/cyclinB (Homo sapiens, UniProt P06493). Briefly: Cyclin-dependent kinase assay (cdc2/cyclinB). As to conditions: Table 1; read-out: cdk1/B IC50. The method, then: as §1
Assay [1] has as its target T1, mouse PDGF-β receptor tyrosine kinase (Mus musculus, UniProt P05622).
T1 construct: amplify a fragment of DNA that codes for the intracellular tyrosine kinase domain; made in house; host or cells: SF9 insect cells (baculovirus)
The assay is described as follows: PDGF receptor tyrosine kinase assay. As to conditions: Table 3. The source says:
(§2) Full-length cDNAs for the mouse PDGF-β and human FGF-1 (flg) receptor tyrosine kinases were obtained from J. Escobedo and prepared as described in J. Biol. Chem., 1991;262:1482-1487. PCR primers were designed to amplify a fragment of DNA that codes for the intracellular tyrosine kinase domain. The fragment was inserted into a baculovirus vector, cotransfected with AcMNPV DNA, and the recombinant virus isolated. SF9 insect cells were infected with the virus to overexpress the protein, and the cell lysate was used for the assay. Assays were performed in 96-well plates (100 µL/incubation/well), and conditions were optimized to measure the incorporation of ^32P from γ^32P-ATP into a glutamate-tyrosine co-polymer substrate. Briefly, to each well was added 82.5 µL of incubation buffer containing 25 mM Hepes (pH 7.0), 150 mM NaCl, 0.1% Triton X-100, 0.2 mM PMSF, 0.2 mM Na3VO4, 10 mM MnCl2, and 750 µg/mL of Poly (4:1) glutamate-tyrosine followed by […] of inhibitor and 5 µL of enzyme lysate (7.5 µg/µL FGF-TK or 6.0 µg/µL PDGF-TK) to initiate the reaction. Following a 10 minute incubation at 25°C, […] of γ^32P-ATP (0.4 µCi plus 50 µM ATP) was added to each well, and samples were incubated for an additional 10 minutes at 25°C. The reaction was terminated by the addition of 100 µL of 30% trichloroacetic acid (TCA) containing 20 mM sodium pyrophosphate and precipitation of material onto glass fiber mats (Wallac). Filters were washed three times with 15% TCA containing 100 mM sodium pyrophosphate, and the radioactivity retained on the filters counted in a Wallac 1250 Betaplate reader. Nonspecific activity was defined as radioactivity retained on the filters following incubation of samples with buffer alone (no enzyme). Specific enzymatic activity (enzyme plus buffer) was defined as total activity minus nonspecific activity. […]

Assay [2] has as its target T2, human FGF-1 (flg) receptor tyrosine kinase (Homo sapiens, UniProt P11362).
T2 construct: amplify a fragment of DNA that codes for the intracellular tyrosine kinase domain; made in house; host or cells: SF9 insect cells (baculovirus)
The assay is described as follows: FGF receptor tyrosine kinase assay. As to conditions: Table 3.
From the text: as §2

The target of another assay is c-Src (Homo sapiens, UniProt P12931). The assay is described as follows: c-Src protein kinase assay. As to conditions: Table 5. The protocol: C-Src kinase was purified from baculovirus infected insect cell lysates using an antipeptide monoclonal antibody directed against the N-terminal amino acids (amino acids 2-17) of c-Src. The antibody, covalently linked to 0.65 µm latex beads, was added to a suspension of insect cell lysis buffer comprised of 150 mM NaCl, 50 mM Tris pH 7.5, 1 mM DTT, 1% NP-40,2 mM EGTA, 1 mM sodium vanadate, 1 mM PMSF, 1 µg/mL each of leupeptin, pepstatin, and aprotinin. Insect cell lysate containing c-Src protein was incubated with these beads for 3 to 4 hours at 4°C with rotation. At the end of the lysate incubation, the beads were rinsed three times in lysis buffer, resuspended in lysis buffer containing 10% glycerol, and frozen. These latex beads were thawed, rinsed three times in assay buffer (40 mM Tris, pH 7.5, […]) and suspended in the same buffer. In a Millipore 96-well plate with a 0.65 µm polyvinylidine membrane bottom were added the reaction components: 10 µL c-Src beads, 10 µL of 2.5 mg/mL poly GluTyr substrate, 5 µM ATP containing 0.2 µCi labeled ^32P-ATP, 5 µL DMSO containing inhibitors or as a solvent control, and buffer to make the final volume 125 µL. The reaction was started at room temperature by addition of the ATP and quenched 10 minutes later by the addition of 125 µL of 30% TCA, 0.1 M sodium pyrophosphate for 5 minutes on ice. […] The filters were then punched, counted in a liquid scintillation counter, and the data examined for inhibitory activity in comparison to a known inhibitor such as erbstatin. […]

The structures appear in SMILES notation.

Chain of cdk4/D (P11802 whole entry): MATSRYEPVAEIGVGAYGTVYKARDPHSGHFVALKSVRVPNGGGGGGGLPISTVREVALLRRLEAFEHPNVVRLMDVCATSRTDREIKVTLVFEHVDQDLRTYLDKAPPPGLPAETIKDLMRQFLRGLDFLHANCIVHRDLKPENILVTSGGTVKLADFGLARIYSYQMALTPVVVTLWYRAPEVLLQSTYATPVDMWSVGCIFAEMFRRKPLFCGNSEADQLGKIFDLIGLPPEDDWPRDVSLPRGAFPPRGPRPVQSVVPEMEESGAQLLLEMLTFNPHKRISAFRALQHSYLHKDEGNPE
Chain of cdk4/D (P24385 whole entry, further chain): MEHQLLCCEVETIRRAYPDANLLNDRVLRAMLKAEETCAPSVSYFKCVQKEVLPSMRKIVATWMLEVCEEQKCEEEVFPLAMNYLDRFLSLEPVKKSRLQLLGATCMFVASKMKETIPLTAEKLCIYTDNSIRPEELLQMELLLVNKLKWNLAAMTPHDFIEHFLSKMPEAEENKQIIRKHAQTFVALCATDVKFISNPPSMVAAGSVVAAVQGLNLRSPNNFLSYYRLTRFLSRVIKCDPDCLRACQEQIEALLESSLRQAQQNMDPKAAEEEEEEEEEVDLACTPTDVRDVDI
Chain of cdc2/cyclinB (P06493 whole entry): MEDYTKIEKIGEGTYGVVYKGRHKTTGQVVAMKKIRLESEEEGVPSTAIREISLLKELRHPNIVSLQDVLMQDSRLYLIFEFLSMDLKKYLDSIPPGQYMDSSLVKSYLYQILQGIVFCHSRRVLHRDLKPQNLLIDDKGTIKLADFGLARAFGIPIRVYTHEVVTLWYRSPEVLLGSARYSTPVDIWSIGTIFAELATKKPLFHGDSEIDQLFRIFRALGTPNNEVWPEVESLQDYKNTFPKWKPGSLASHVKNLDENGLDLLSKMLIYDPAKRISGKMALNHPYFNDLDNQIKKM
Chain of cdc2/cyclinB (P14635 whole entry, further chain): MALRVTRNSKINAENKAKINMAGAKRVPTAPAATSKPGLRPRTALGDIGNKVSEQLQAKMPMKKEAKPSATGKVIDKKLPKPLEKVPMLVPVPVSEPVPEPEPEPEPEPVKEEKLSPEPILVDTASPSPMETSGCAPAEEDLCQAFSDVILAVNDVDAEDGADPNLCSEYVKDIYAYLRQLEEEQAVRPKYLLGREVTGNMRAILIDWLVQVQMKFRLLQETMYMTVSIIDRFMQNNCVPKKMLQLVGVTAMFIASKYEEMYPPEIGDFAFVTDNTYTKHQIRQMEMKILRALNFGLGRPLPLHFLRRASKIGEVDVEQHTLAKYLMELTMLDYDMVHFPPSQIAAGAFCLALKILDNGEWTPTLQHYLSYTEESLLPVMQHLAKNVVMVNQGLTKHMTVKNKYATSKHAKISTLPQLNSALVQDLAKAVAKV
Chain of c-Src (P12931 whole entry, the tested form may be a part): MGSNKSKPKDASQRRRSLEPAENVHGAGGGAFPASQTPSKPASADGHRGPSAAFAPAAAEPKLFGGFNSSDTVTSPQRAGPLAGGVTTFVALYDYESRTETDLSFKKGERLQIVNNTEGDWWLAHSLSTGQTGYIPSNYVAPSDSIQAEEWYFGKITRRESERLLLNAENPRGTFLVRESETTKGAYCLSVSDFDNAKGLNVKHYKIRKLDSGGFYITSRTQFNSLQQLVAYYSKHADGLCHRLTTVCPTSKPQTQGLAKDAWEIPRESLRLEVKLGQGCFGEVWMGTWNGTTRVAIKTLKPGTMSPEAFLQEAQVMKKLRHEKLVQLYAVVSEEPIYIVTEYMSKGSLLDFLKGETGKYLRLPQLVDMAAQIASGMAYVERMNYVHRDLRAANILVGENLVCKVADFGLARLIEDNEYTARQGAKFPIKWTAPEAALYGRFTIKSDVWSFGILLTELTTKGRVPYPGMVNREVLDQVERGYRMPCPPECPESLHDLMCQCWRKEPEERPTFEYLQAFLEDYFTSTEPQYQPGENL
T1 sequence (P05622 599-961 limits assumed): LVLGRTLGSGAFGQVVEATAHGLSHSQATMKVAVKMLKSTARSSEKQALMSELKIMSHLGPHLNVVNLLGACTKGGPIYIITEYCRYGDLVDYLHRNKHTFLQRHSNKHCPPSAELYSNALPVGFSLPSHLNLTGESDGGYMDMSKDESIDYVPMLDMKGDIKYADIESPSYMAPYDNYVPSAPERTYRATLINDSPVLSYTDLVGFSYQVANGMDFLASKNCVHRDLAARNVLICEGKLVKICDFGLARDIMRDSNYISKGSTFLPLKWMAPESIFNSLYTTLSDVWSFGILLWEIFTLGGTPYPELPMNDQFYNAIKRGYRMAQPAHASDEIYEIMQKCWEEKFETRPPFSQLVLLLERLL
T2 sequence (P11362 478-767 limits assumed): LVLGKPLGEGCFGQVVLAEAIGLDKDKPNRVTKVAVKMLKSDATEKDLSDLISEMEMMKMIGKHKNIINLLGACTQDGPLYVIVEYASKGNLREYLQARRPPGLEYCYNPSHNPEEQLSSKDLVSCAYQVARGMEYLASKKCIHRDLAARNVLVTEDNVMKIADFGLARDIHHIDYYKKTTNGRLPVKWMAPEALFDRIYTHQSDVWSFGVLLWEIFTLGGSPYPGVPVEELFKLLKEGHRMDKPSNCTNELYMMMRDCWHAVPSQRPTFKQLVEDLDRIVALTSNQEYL

As to `O=c1ccc2cnc(Nc3ccccc3)nc2n1C1CCCCC1` [Example 131, 8-Cyclohexyl-2-phenylamino-8H-pyrido[2,3-d]pyrimidin-7-one], the IC50 against cdk4/D amounted to 0.047 µM; on cdk2/cyclinE, 0.125 µM; on cdk2/cyclinA, 0.079 µM; at cdc2/cyclinB, 0.749 µM; in assay [1], 16.1 µM; in assay [2] it was 12.4 µM.

Turning to `CCn1c(=O)ccc2cnc(Nc3ccncc3)nc21` [Example 50, 8-Ethyl-2-(pyridin-4-ylamino)-8H-pyrido[2,3-d]pyrimidin-7-one], the results for the IC50 on cdk4/D and on c-Src were 2 µM and 15 µM, respectively.

On to `CCCn1c(=O)ccc2cnc(Nc3ccccc3)nc21` [Example 41, 2-Phenylamino-8-propyl-8H-pyrido[2,3-d]pyrimidin-7-one], for which the IC50 on cdk4/D came to 0.55 µM; on cdk2/cyclinE, 0.112 µM; on cdk2/cyclinA, 0.05 µM; at cdc2/cyclinB, 0.299 µM; in assay [1] it was 4.96 µM; in assay [2] it was 6.6 µM.

Turning to `CC(C)Cn1c(=O)ccc2cnc(Nc3ccccc3)nc21` [Example 42, 8-Isobutyl-2-phenylamino-8H-pyrido[2,3-d]pyrimidin-7-one], the IC50 at cdk4/D stood at 0.4 µM; in assay [1], 3.69 µM; in assay [2], 4.06 µM.

Turning to `CCN(CC)CCOc1ccc(Nc2ncc3ccc(=O)n(CC)c3n2)cc1` [Example 52, 2-[4-(2-Diethylaminoethoxy)-phenylamino]-8-ethyl-8H-pyrido[2,3-d]pyrimidin-7-one], the IC50 against cdk4/D stood at 0.16 µM; on cdk2/cyclinE, 2.34 µM; on cdk2/cyclinA it was 0.75 µM; at cdc2/cyclinB it was 2.66 µM; at c-Src, 1.03 µM.

Turning to `CCCCn1c(=O)ccc2cnc(Nc3ccccc3)nc21` [Example 40, 8-Butyl-2-phenylamino-8H-pyrido[2,3-d]pyrimidin-7-one], the IC50 is 1.49 µM against cdk4/D; 0.058 µM at cdk2/cyclinE; 0.037 µM on cdk2/cyclinA; 0.205 µM on cdc2/cyclinB; 19.5 µM at c-Src.

As to `CC1CC(C)CN(c2ccc(Nc3ncc4ccc(=O)n(C5CCCCC5)c4n3)cc2)C1` (stereo not shown) [Example 167, 8-Cyclohexyl-2-[4-(3,5-dimethyl-piperidin-1-yl)-phenylamino]-8H-pyrido[2,3-d]pyrimidin-7-one], the IC50 came out at 33.1 µM in assay [1] and 20.6 µM in assay [2].

Consider `CCn1c(=O)ccc2cnc(Nc3ccccc3)nc21` [Example 18, 8-Ethyl-2-phenylamino-8H-pyrido[2,3-d]pyrimidin-7-one], for which the IC50 is 0.752 µM against cdk4/D; 0.41 µM at cdk2/cyclinE; 0.129 µM at cdk2/cyclinA; 1.02 µM on cdc2/cyclinB; 1.78 µM in assay [1]; 3.3 µM in assay [2].

Regarding `O=c1ccc2cnc(Nc3ccccc3)nc2n1-c1ccccc1` [Example 101, 2-Phenylamino-8-phenyl-8H-pyrido[2,3-d]pyrimidin-7-one], the IC50 on cdk4/D is 1.7 µM; against c-Src it was 21.2 µM.

In the case of `O=c1ccc2cnc(Nc3ccccc3)nc2n1C1CC2CCC1C2` (stereo not shown) [Example 180, 8-Bicyclo[2.2.1]hept-2-yl-2-phenylamino-8H-pyrido[2,3-d]pyrimidin-7-one], the IC50 at cdk4/D was determined as 0.038 µM; on cdk2/cyclinE, 0.173 µM; on cdk2/cyclinA, 0.075 µM; on cdc2/cyclinB it was 0.503 µM; in assay [1], 27.8 µM; in assay [2] it was 12 µM.

As to `CC(C)n1c(=O)ccc2cnc(Nc3ccccc3)nc21` [Example 43, 8-Isopropyl-2-phenylamino-8H-pyrido[2,3-d]pyrimidin-7-one], the IC50 against cdk4/D was found to be 0.15 µM; on cdk2/cyclinE, 0.126 µM; on cdk2/cyclinA, 0.031 µM; on cdc2/cyclinB, 0.44 µM.

`CCN(CC)CCOc1ccc(Nc2ncc3ccc(=O)n(C4CCCCC4)c3n2)cc1C` [Example 150, 8-Cyclohexyl-2-[4-(2-diethylamino-ethoxy)-3-methyl-phenylamino]-8H-pyrido[2,3-d]pyrimidin-7-one]: the IC50 in assay [1] and in assay [2] was 0.099 µM in each case.

Turning to `O=c1ccc2cnc(Nc3ccc(-n4cccn4)cc3)nc2n1C1CCCCC1` [Example 162, 8-Cyclohexyl-2-(4-pyrazol-1-yl-phenylamino)-8H-pyrido[2,3-d]pyrimidin-7-one], the IC50 in assay [1] came to 17.1 µM; in assay [2], 19.7 µM.

Regarding `O=c1ccc2cnc(Nc3ccc(N4CCC(CCO)CC4)cc3)nc2n1C1CCCC1` [Example 196, 8-Cyclopentyl-2-{4-[4-(2-hydroxy-ethyl)-piperidin-1-yl]-phenylamino}-8H-pyrido[2,3-d]pyrimidin-7-one], the results for the IC50 in assay [1] and in assay [2] were 1.06 µM and 1.45 µM, respectively.

For `CCC(CC)n1c(=O)ccc2cnc(Nc3ccc(N4CCN(C)CC4)cc3)nc21` [Example 77, 8-(1-Ethylpropyl)-2-[4-(4-methylpiperazin-1-yl)-phenylamino]-8H-pyrido[2,3-d]pyrimidin-7-one], the IC50 came out at 0.014 µM against cdk4/D, 0.068 µM on cdk2/cyclinE, 0.028 µM against cdk2/cyclinA and 0.141 µM on cdc2/cyclinB.

With `CCn1c(=O)ccc2cnc(NC3CCCCC3)nc21` [Example 48, 2-Cyclohexylamino-8-ethyl-8H-pyrido[2,3-d]pyrimidin-7-one], the IC50 was determined as 3.3 µM against cdk4/D, 0.592 µM at cdk2/cyclinE, 0.23 µM at cdk2/cyclinA and 2.61 µM on cdc2/cyclinB.

For the compound `O=c1ccc2cnc(Nc3ccc(N4CCC(O)CC4)cc3)nc2n1C1CCCC1` [Example 198, 8-Cyclopentyl-2-[4-(4-hydroxy-piperidin-1-yl)-phenylamino]-8H-pyrido[2,3-d]pyrimidin-7-one], on c-Src, the IC50 is 1.1 µM.

Consider `O=c1ccc2cnc(Nc3ccccc3)nc2n1C1CCCCCC1` [Example 155, 8-Cycloheptyl-2-phenylamino-8H-pyrido[2,3-d]pyrimidin-7-one], for which the IC50 on cdk4/D was determined as 0.182 µM; on cdk2/cyclinE, 0.024 µM; on cdk2/cyclinA it was 0.009 µM; at cdc2/cyclinB, 0.065 µM.

Take `CN1CCN(c2ccc(Nc3ncc4ccc(=O)n(CCCOCc5ccccc5)c4n3)cc2)CC1` [Example 115, 8-(3-Benzyloxy-propyl)-2-[4-(4-methyl-piperazin-1-yl)-phenylamino]-8H-pyrido[2,3-d]pyrimidin-7-one]: the IC50 against c-Src is 0.545 µM.

Regarding `O=c1ccc2cnc(Nc3ccccc3)nc2n1C1CCCC1` [Example 108, 8-Cyclopentyl-2-phenylamino-8H-pyrido[2,3-d]pyrimidin-7-one], the IC50 is 0.21 µM against cdk4/D; 0.11 µM on cdk2/cyclinE; 0.012 µM against cdk2/cyclinA; 0.19 µM on cdc2/cyclinB; 4.18 µM in assay [1]; 2.98 µM in assay [2].
